SMILES | melting point [°C]
c1ccc(OCCn2c(CC3CC3)nc3cnc4cc(-c5ccccc5)ccc4c32)cc1 | 175 to 176
C[C@@H](c1ccccc1)N1CC[C@@H](C2(N(Cc3ccccc3)Cc3ccccc3)CC2)C1 | 61 to 61.3
Nc1cccc(-c2ccc(CCN3CCN(C(=O)C4CCCC4)CC3)cc2)n1 | 185 to 187
CNc1cc(NS(=O)(=O)c2ccc(N)cc2)nc(N(C)C)n1 | 253 to 254
Cc1ccc(-c2cn(C)cc(-c3cccc(C(F)(F)F)c3)c2=O)c(C)c1 | 128 to 131
CN(C)c1cc(Cl)c2c(c1)NC(=O)C(C)(c1ccccc1)C2=O (configuration not stated) | 224 to 226
CCN1CC(NC(=O)c2cc(Cl)c(N)cc2OC)CN1CC | 117 to 119
COC(=O)c1cc(Br)ccc1O | 59 to 61.5
CCOC(=O)[C@H](Cc1ccc([N+](=O)[O-])cc1)NC(=O)c1ccccc1 | 99 to 101
CN1CCCC1=NC(=O)Nc1ccc(Br)cc1 | 134 to 136
N#Cc1cccc(C2C(=O)c3ccccc3C2=O)c1 | 179 to 182
CC(=O)n1nc(-c2cccc([N+](=O)[O-])c2)n2nc(C)cc12 | 207 to 210
CC(C)(C)OC(=O)[C@@H]1C[C@H](c2ccccc2)CN1 | 62
CS(=O)(=O)c1ccccc1S | 57
Cc1cc2cn[nH]c2c(C(=O)NC2(C3CC3)CC2)c1NC(=O)c1cc(Br)nn1-c1ncccc1Cl | 170 to 173
CNC(=O)c1cc(Oc2ccc(NC(=O)Nc3ccc(Br)c(C(F)(F)F)c3)cc2)ccn1 | 203 to 205
CC(C)=CCc1c(O)ccc(C(=O)C=Cc2ccccc2)c1O | 131 to 132
C=CC(=O)NCC(=O)Nc1cc(Cl)c(C)c(Cl)c1O | 225 to 227
CCc1ccc2oc(-c3ccc(C=C4C(=O)C5(C)CCC4C5(C)C)cc3)nc2c1 (configuration not stated) | 178 to 179
CS(=O)(=O)c1ccc(-c2coc3ccc(-c4nnc(N)o4)cc23)cc1 | 274 to 275

SMILES | melting point [°C]
CCCN1CC(c2cccc(Br)c2)=C(c2ccc(S(N)(=O)=O)cc2)C1=O | 162 to 163
CCOC(=O)Cc1csc(NS(C)(=O)=O)n1 | 207 to 208
CN(C)c1nc2ccccc2n(-c2ccc(Cl)cc2)c1=O | 235 to 237
CC(C(N)=O)c1ccc2c(c1)CC(=O)c1ccccc1S2 (configuration not stated) | 184 to 186
CCCCc1ccc(CCc2ccc(-c3ccc(F)cc3F)cc2)cc1 | 40
Clc1cccc(Cl)c1CN1CCNc2ncc(I)cc21 | > 200
CCOc1ccc(N2CCN(c3c(C)c4c(c(OC)c3C)OC(C)(C)C4)CC2)cc1 | 152 to 154
COc1cc(Br)c(C(=O)c2ccccc2)cc1OC | 71 to 72
C[C@@H]1O[C@](/C=C/C2CC2)(C(F)(F)F)c2cc(Cl)ccc2NC1=O (relative stereo) | 171 to 172
CN(O)C(=O)C1CCC(C2CCCCC2)CC1 (configuration not stated) | 89 to 90
CCOC(=O)c1ncn2c1CN(Cc1ccc(OC)cc1OC)C(=O)c1cc(OC)ccc1-2 | 204
Cc1ccc(C(C)(C)C)cc1P(=O)(O)c1cc(C(C)(C)C)ccc1C | 182 to 183
Cc1cc(N(C)C)nc2ccc(C=O)cc12 | 96 to 99
NCc1cccc(-n2cnc3cnc4ccc(Cl)cc4c32)c1 | 148 to 149
CCOC(=O)c1c[nH]c2cnc3cc(F)c(F)cc3c2c1=O | 300
CCC1=Nc2cccc(Cl)c2C(=O)C1 | 236 to 239
COC(=O)C1(Cc2ccc(Br)cc2)CCCN1C(=O)Nc1cc(Cl)cc(Cl)c1 (configuration not stated) | 171
O=C(Nc1nc(C(Cl)(Cl)Cl)ns1)c1ccccc1Cl | 142
CN1CC[C@@H]2CC(=O)c3cc(F)c(F)cc3[C@@H]2C1 (relative stereo) | > 250
CCOC(=O)c1ncn2c1c(=O)n(C)c1ccccc12 | 218 to 220

SMILES | melting point [°C]
CCCCCCCCC(C)OC(=O)NC(C)(C=O)CCc1c[nH]c2ccccc12 (configuration not stated) | 178 to 179
CCCCCCCC(=O)OCOC1=C(C(=O)Nc2ccccn2)N(C)S(=O)(=O)c2ccccc21 | 98 to 99
Cc1ccc(-c2cc(F)c(F)cc2-c2ccc(S(C)(=O)=O)cc2)cc1Cl | 138 to 139
COc1cccc([Si](C)(C)COc2cc(C(C)(C)C)c(O)c(C(C)(C)C)c2)c1OC | 94.5 to 96
CC(=O)NCC1CN(c2ccc(N3CCC(=C(C)C#N)C(F)C3)c(F)c2)C(=O)O1 (configuration not stated) | 148 to 150
C[C@H]1CN(c2c(F)cc3c(=O)c(C(=O)O)cn4c3c2CCN4C)C[C@H]1NC(=O)CNC(=O)OC(C)(C)C (relative stereo) | 142 to 145
Cc1nc(C)c(C(=O)Nc2cccc(Oc3ccc4nc(NC(=O)C5CC5)cn4n3)c2)s1 | 249
COc1ccncc1-c1cccc(OC2SCC(O)C(O)C2O)c1 (configuration not stated) | 195
COc1ccc(CSc2nnc(-c3ccn4ncnc4c3)o2)cc1C(F)(F)F | 178 to 179
CCOC(=O)Cn1c(-c2ccc(Br)cc2)nc2cccnc21 | 138 to 139
COC(=O)C=CC(=CN(C)C)C(=O)OC | 62
C#CCOc1ccc2ccc(=S)oc2c1 | 97 to 101
CCOC(=O)C(C)c1ccc(NC2OC(=O)c3ccccc32)cc1 (configuration not stated) | 136 to 139
CCN(CC)c1ccc2c(c1)[C@@H]1[C@H](C2)c2ccc(N(CC)CC)cc2N1C(C)=O (relative stereo) | 137 to 138
Clc1ccc(C2(Cn3ccnc3)OCC(CCc3ccccc3)O2)c(Cl)c1 (configuration not stated) | 118
O=C(O)c1cc(NCc2ccc(Cl)cc2)ccc1O | 227 to 228
CCn1c(C)c(C2(N(c3ccccc3)c3ccccc3C(=O)OC)OC(=O)c3ccccc32)c2ccccc21 (configuration not stated) | 80 to 115
Cn1c(=O)c2c(ncn2CCCN2CCC(NC(=O)c3ccc(N)cc3)CC2)n(C)c1=O | 203 to 205
COc1cc(N)c(Cl)cc1C(=O)NCC1CCN(CCCS(=O)(=O)Cc2ccc(F)cc2)CC1 | 147 to 148
O=C(O)C1CCN(C(=O)OCC2c3ccccc3-c3ccccc32)CC1 | 187 to 189

The next lines start with the values.

melting point [°C] | SMILES
100 to 101 | Cc1cc(-c2cccc(C(=O)CC(=O)Nc3cc(-c4ccc(F)cc4)ccc3NC(=O)OC(C)(C)C)c2)on1
269 to 271 | Cc1nc2ccccc2n(-c2ccc(N)cc2)c1=O
124 to 127 | COC(CN(C)C(=O)Nc1nnc(C(C)Oc2ccc(Cl)c(Cl)c2)s1)OC (configuration not stated)
279 to 281 | COc1c(O)c(OC)c2c(=O)cc(-c3ccc(O)c(O)c3)oc2c1OC
117 to 118 | COc1cc(CO)ccc1OCc1coc(-c2ccco2)n1
78 to 80 | CCOCc1cc2cc(Br)ccc2oc1=Nc1ccccc1
73 to 75.5 | Cc1cccc(SCCC(=O)O)c1
179 to 180 | O=C(O)c1ccc(CO)cc1O
142 to 146 | Nc1[nH]c(=O)c(C(=O)NCC2CCN(CC3CCCCC3)CC2)cc1Cl
32 to 34 | CCCCCOc1nc(Cl)nc2ccccc12
207 to 210 | N#CN=C1NCCN1CC#CCNC(=O)C(O)(c1ccccc1)C1CCCCC1 (configuration not stated)
82 to 84 | CCOC(=O)c1cc(-c2ccc(Cl)cc2)n(O)c1C(=O)OCC
59 to 61 | COc1cc(OC)c(OC)c(OC)c1OC
87 to 88 | COC(=O)C(CCCCNC(=O)c1ccc(NC(=O)OCc2ccccc2)cc1)n1c2ccccc2c2ccccc21 (configuration not stated)
148 to 150 | c1ccc(N(CCCNC2=NC3CCC2CC3)c2ccccc2)cc1
233 to 235 | NC(=O)c1c(N)oc2c(-c3ccccc3)cccc2c1=O
108 to 110 | NC(=O)c1cscc1Br
178 to 179 | CCOC(=O)C1NC(C(=O)O)c2[nH]c3cccc(OCc4cccc(Cl)c4)c3c2C1COC (configuration not stated)
217 to 218 | Nc1ccc(C(c2ccccc2)(c2ccc(N)cc2)C(F)(F)F)cc1
> 280 | O=C(Nc1nccs1)c1nc(-c2ccc([N+](=O)[O-])cc2)[nH]c1-c1ccc(CCl)cc1
235 | CC(C#N)(c1ccc(Cl)cc1)c1ccc(-n2ncc(=O)[nH]c2=O)cc1Cl (configuration not stated)

melting point [°C] | SMILES
245 to 246 | CC1Cc2cc(S(N)(=O)=O)cc(C(=O)O)c2O1 (configuration not stated)
76 to 85 | COc1cc(N2CCN(C[C@H](C)O)CC2)ccc1Nc1ncc2ccc(-c3ccccc3OC)n2n1
142 to 144 | Cn1c(CO)cnc1[N+](=O)[O-]
180 to 182 | CCOC(=O)COc1ccc(SCc2cccc3nc(-c4ccc(C(F)(F)F)cc4)oc23)cc1C
85 | COc1cc2c(cc1OCc1ccccc1)C(C#N)C2 (configuration not stated)
165 to 166 | CSC(Oc1ccc2ncc(I)cc2c1)C(=O)NC(C)(C)C (configuration not stated)
142 to 145 | Cc1ccc(S(=O)(=O)OCCc2cccc3c(S(=O)(=O)c4ccccc4)c[nH]c23)cc1
134 to 139 | Oc1ccc(F)cc1Cc1ccc(F)cc1
101 to 102 | CCCSc1cn(C)cc(-c2cccc(C(F)(F)F)c2)c1=O
157 to 159 | Nc1nnc(N2CCN(C(=O)OCc3ccccc3)CC2)[nH]1
147 to 150 | NC(=O)c1ccccc1CNC(=S)NC(=O)c1ccccc1
135 to 136 | COc1ccc(O)c(NS(C)(=O)=O)c1
93 to 95 | CON=C(C(=O)OC)c1ccc(O)c([N+](=O)[O-])c1
70 to 71 | CCOC(=O)CCc1oc(-n2ccnc2C)nc1-c1ccc(Cl)cc1
203 | COc1ccc2c(c1)CC(NCC(=O)O)CC2 (configuration not stated)
175 to 190 | CCCCc1oc2ccccc2c1C(=O)NCc1ccc(-c2ccc(OCC(=O)O)c(Br)c2)cc1
60 to 62 | Cc1c(SCc2ccco2)ccnc1CO
105 to 108 | COC(=O)Cn1c(CCc2ccccc2)ccc(NC(=O)CCc2ccccc2)c1=O
182 to 184 | CC(C)(Oc1ccc(NC(=O)Nc2cc(Cl)cc(Cl)c2)cc1)C(=O)O
224 to 226 | CCc1noc(-c2cn(-c3ccc(Cl)cn3)cn2)n1
227 to 229 | Clc1ccc(Cn2c(-c3ccccn3)nc3ccccc32)cc1Cl
